Measurements from DBAASP.
Values after ≈ are worked out from the molar mass of the structure shown. Values joined by “and” are separate entries in the source; they are usually repeats but may differ in a detail not shown here. Identical values can stand only once.

Experiments:
Assay in all cases: ≥ marks a high value that may be exact or a test limit, other limits are often not marked, values filed in µg/mL are converted to µM
Escherichia coli BL21AI = test system: Escherichia coli BL21AI
[1] = test system: Micrococcus luteus ATCC 10240
[2] = test system: Acinetobacter baumannii ATCC 19606
Pseudomonas aeruginosa = test system: Pseudomonas aeruginosa
[3] = test system: Enterococcus faecium ATCC 29212
[4] = test system: Bacillus subtilis ATCC 21332
Acinetobacter baumannii = test system: Acinetobacter baumannii
Escherichia coli = test system: Escherichia coli
[5] = test system: Proteus mirabilis ATCC 12453
[6] = test system: Enterobacter cloacae ATCC 13047
[7] = test system: Staphylococcus hominis ATCC 29970
Enterococcus faecium = test system: Enterococcus faecium
[8] = test system: Klebsiella aerogenes ATCC 49701
[9] = test system: Stenotrophomonas maltophilia ATCC 13637
Staphylococcus aureus = test system: Staphylococcus aureus
[10] = test system: Raoultella ornithinolytica ATCC 31898
[11] = test system: Staphylococcus epidermidis ATCC 12228
[12] = test system: Staphylococcus epidermidis
[13] = test system: Stenotrophomonas maltophilia
Klebsiella oxytoca = test system: Klebsiella oxytoca
[14] = test system: Klebsiella pneumoniae ATCC 700603
Enterobacter cloacae = test system: Enterobacter cloacae
Serratia marcescens = test system: Serratia marcescens
[15] = test system: Staphylococcus aureus ATCC 29213
[16] = test system: Raoultella ornithinolytica
[17] = test system: Pseudomonas aeruginosa ATCC 15442
Proteus mirabilis = test system: Proteus mirabilis
[18] = test system: Serratia marcescens ATCC 14041
Klebsiella aerogenes = test system: Klebsiella aerogenes
Staphylococcus hominis = test system: Staphylococcus hominis
Streptococcus agalactiae = test system: Streptococcus agalactiae
[19] = test system: Escherichia coli ATCC 25922
Klebsiella pneumoniae = test system: Klebsiella pneumoniae
[20] = test system: Klebsiella oxytoca ATCC 43086
[21] = test system: Pseudomonas aeruginosa U-31
[22] = test system: Escherichia coli NIHJ JC-2
[23] = test system: Bacillus subtilis PCI 219
[24] = test system: Staphylococcus aureus FDA 209P
[25] = test system: Staphylococcus epidermidis KCTC 3096
[26] = test system: Saccharomyces cerevisiae KCTC 7296
[27] = test system: Salmonella typhimurium KCTC 1926
[28] = test system: Candida albicans TIMM 1768
[29] = test system: Bacillus subtilis KCTC 1918
[30] = test system: Pseudomonas aeruginosa KCTC 1637
[31] = test system: Trichosporon beigelii KCTC 7707
[32] = test system: Bacillus megaterium ATCC 19213
[33] = test system: Bacillus subtilis NBRC 3513
[34] = test system: Staphylococcus aureus NBRC 12732
[35] = test system: Staphylococcus epidermidis NBRC 12933

**Q.** How did the MIC (Escherichia coli BL21AI) turn out when CC[C@H](C)[C@H](NC(=O)[C@@H]1CCCN1C(=O)[C@H](CCCN=C(N)N)NC(=O)[C@@H]1CCCN1C(=O)[C@H](Cc1cnc[nH]1)NC(=O)[C@H](CO)NC(=O)[C@@H](NC(=O)[C@@H]1CCCN1C(=O)[C@H](CCCN=C(N)N)NC(=O)[C@@H]1CCCN1C(=O)[C@H](CO)NC(=O)[C@H](Cc1ccc(O)cc1)NC(=O)[C@@H]1CCCN1C(=O)[C@H](CCCN=C(N)N)NC(=O)[C@@H]1CCCN1C(=O)[C@H](CCCCN)NC(=O)CN)[C@@H](C)O)C(=O)N[C@@H](CCCN=C(N)N)C(=O)N[C@H](C(N)=O)C(C)C [GKPRPYSPRPTSHPRPIRV] was run?
**A.** 29.1 µM (≈ 64 µg/mL)

**Q.** And the MIC [1]?
**A.** 0.455 µM (≈ 0.999 µg/mL)

**Q.** CC[C@H](C)[C@H](NC(=O)[C@@H](NC(=O)[C@@H]1CCCN1C(=O)[C@@H](NC(=O)[C@@H]1CCCN1C(=O)[C@H](CCCCN)NC(=O)[C@H](CCCCN)NC(=O)[C@H](CO)NC(=O)CN)C(C)C)[C@@H](C)CC)C(=O)N[C@@H](Cc1ccc(O)cc1)C(=O)N[C@H]1CSSC[C@@H](C(=O)N[C@@H](CCC(N)=O)C(=O)N[C@@H](CCCN=C(N)N)C(=O)N[C@@H](CCSC)C(=O)O)NC(=O)[C@H](CCCCN)NC(=O)CNC(=O)[C@H](CO)NC(=O)[C@H](CCCN=C(N)N)NC(=O)[C@H](CCCN=C(N)N)NC(=O)[C@H](CC(N)=O)NC1=O [GSKKPVPIIYCNRRSGKCQRM] was tested. Which MIC [2] did it give?
**A.** > 52.9 µM

**Q.** And the MIC (Pseudomonas aeruginosa)?
**A.** > 52.9 µM

**Q.** And the MIC [3]?
**A.** 26.4 µM (≈ 63.9 µg/mL)

**Q.** And the MIC [4]?
**A.** 3.3 µM (≈ 7.99 µg/mL)

**Q.** What about the MIC (Acinetobacter baumannii) of the same compound?
**A.** ≥ 52.9 µM

**Q.** What about the MIC (Escherichia coli) of the same compound?
**A.** 2.34 µM (≈ 5.65 µg/mL)

**Q.** What about the MIC [5] of the same compound?
**A.** ≥ 52.9 µM

**Q.** And the MIC [6]?
**A.** 3.3 µM (≈ 7.99 µg/mL)

**Q.** And the MIC [7]?
**A.** ≥ 52.9 µM

**Q.** And the MIC (Enterococcus faecium)?
**A.** ≥ 37.4 µM

**Q.** What about the MIC [8] of the same compound?
**A.** 1.65 µM (≈ 4 µg/mL)

**Q.** What about the MIC [9] of the same compound?
**A.** ≥ 52.9 µM

**Q.** What about the MIC (Staphylococcus aureus) of the same compound?
**A.** > 52.9 µM

**Q.** What about the MIC [10] of the same compound?
**A.** 3.3 µM (≈ 7.99 µg/mL)

**Q.** What about the MIC [11] of the same compound?
**A.** > 52.9 µM

**Q.** And the MIC [12]?
**A.** ≥ 52.9 µM

**Q.** And the MIC [13]?
**A.** ≥ 52.9 µM

**Q.** And the MIC (Klebsiella oxytoca)?
**A.** 3.3 µM (≈ 7.99 µg/mL)

**Q.** And the MIC [14]?
**A.** 3.3 µM (≈ 7.99 µg/mL)

**Q.** And the MIC (Enterobacter cloacae)?
**A.** 4.67 µM (≈ 11.3 µg/mL)

**Q.** And the MIC (Serratia marcescens)?
**A.** ≥ 52.9 µM

**Q.** What about the MIC [15] of the same compound?
**A.** > 52.9 µM

**Q.** And the MIC [16]?
**A.** 3.3 µM (≈ 7.99 µg/mL)

**Q.** And the MIC [17]?
**A.** ≥ 52.9 µM

**Q.** What about the MIC (Proteus mirabilis) of the same compound?
**A.** ≥ 52.9 µM

**Q.** What about the MIC [18] of the same compound?
**A.** ≥ 52.9 µM

**Q.** What about the MIC (Klebsiella aerogenes) of the same compound?
**A.** 1.65 µM (≈ 4 µg/mL)

**Q.** What about the MIC (Staphylococcus hominis) of the same compound?
**A.** ≥ 52.9 µM

**Q.** And the MIC (Streptococcus agalactiae)?
**A.** ≥ 52.9 µM

**Q.** What about the MIC [19] of the same compound?
**A.** 2.34 µM and 1.6 µM

**Q.** What about the MIC (Klebsiella pneumoniae) of the same compound?
**A.** 2.34 µM (≈ 5.65 µg/mL)

**Q.** What about the MIC [20] of the same compound?
**A.** 3.3 µM (≈ 7.99 µg/mL)

**Q.** With CC(C)C[C@H](NC(=O)[C@H](CCCCN)NC(=O)[C@H](CCCCN)NC(=O)[C@H](CCCCN)NC(=O)[C@H](CC(C)C)NC(=O)[C@H](CCCCN)NC(=O)[C@H](CCCCN)NC(=O)[C@H](Cc1c[nH]c2ccccc12)NC(=O)[C@H](CCCCN)NC(=O)[C@H](CCCCN)NC(=O)[C@H](CCCCN)NC(=O)[C@H](CC(C)C)NC(=O)[C@H](CCCCN)NC(=O)[C@H](CCCCN)NC(=O)[C@H](CC(C)C)NC(=O)[C@H](CCCCN)NC(=O)[C@@H](N)CCCCN)C(=O)N[C@@H](CCCCN)C(=O)O [KKLKKLKKKWKKLKKKLK] as the compound, how does the MIC [21] read?
**A.** ≥ 43 µM

**Q.** And the MIC [22]?
**A.** ≥ 43 µM

**Q.** And the MIC [23]?
**A.** ≥ 43 µM

**Q.** And the MIC [24]?
**A.** ≥ 43 µM

**Q.** What does the source list for CC(C)C[C@H](NC(=O)[C@H](CCCCN)NC(=O)[C@H](CCCCN)NC(=O)[C@H](CC(C)C)NC(=O)[C@H](CC(C)C)NC(=O)[C@H](CCCCN)NC(=O)[C@H](CCCCN)NC(=O)[C@H](CC(C)C)NC(=O)[C@H](CC(C)C)NC(=O)[C@@H]1CCCN1C(=O)[C@@H](N)CCCCN)C(N)=O [KPLLKKLLKKL]?
**A.** MIC [25]: 6.3 µM (≈ 8.32 µg/mL); MIC [26]: 12.5 µM (≈ 16.5 µg/mL); MIC [27]: 0.4 µM (≈ 0.528 µg/mL); MIC [28]: 25 µM (≈ 33 µg/mL); MIC [29]: 6.3 µM (≈ 8.32 µg/mL); MIC [30]: 3.1 µM (≈ 4.09 µg/mL); MIC [31]: 6.3 µM (≈ 8.32 µg/mL)

**Q.** For CC(C)C[C@H](NC(=O)[C@H](CCCCN)NC(=O)[C@H](CC(C)C)NC(=O)[C@H](CC(C)C)NC(=O)[C@H](Cc1c[nH]c2ccccc12)NC(=O)[C@@H](N)CCCN=C(N)N)C(=O)NCC(=O)N[C@@H](Cc1cnc[nH]1)C(=O)N[C@@H](Cc1cnc[nH]1)C(=O)NCC(=O)N[C@@H](CCCN=C(N)N)C(=O)N[C@@H](C)C(=O)N1CCC[C@H]1C(=O)N1CCC[C@H]1C(=O)O [RWLLKLGHHGRAPP], which MIC [32] is on record?
**A.** ≥ 64 µM

**Q.** What about the MIC [33] of the same compound?
**A.** ≥ 128 µM

**Q.** What about the MIC [34] of the same compound?
**A.** ≥ 128 µM

**Q.** What about the MIC [35] of the same compound?
**A.** ≥ 128 µM
